Assay results as given in patent US20160115540A1, “PRODRUGS AND DRUGS” (Biogen MA Inc., priority 2013, published 2016).
Structures can show the parent of a compound that is named as a salt.

Tested on: liver
Assay: Transcriptional profiling on Affymetrix GeneChips, single dose, naïve mice: liver
Type: in vivo, C57BL/6 mice
Conditions: liver
Method: Treated mice were sacrificed at 2, 7, or 12 hours. Tissues (liver, spleen, kidney, jejunum, cortex, hippocampus, striatum and whole blood) were collected and analyzed by transcriptional profiling on mouse Affymetrix GeneChips.
Tissues (liver, spleen, kidney, jejunum, cortex, hippocampus, striatum and whole blood) were collected and analyzed by transcriptional profiling on mouse Affymetrix GeneChips.
Animals were exposed to CO2 and whole blood collected via cardiac puncture. Two 100 μl aliquots of whole blood were collected in 1.5 mL microcentrifuge tubes and snap frozen in liquid nitrogen. Peripheral (liver, spleen, kidney and jejunum) and CNS brain (cerebellum, hippocampus, striatum and cortex) tissues were harvested and snap frozen in liquid nitrogen, with special care taken to collect tissues of similar size and from the same location. All samples were stored at −80° C. until RNA extraction was conducted.
For RNA preparation, frozen tissues were placed in 2 mL RNAse-free 96-well blocks with 1.5 mL QIAzol Lysis Reagent (QIAgen) and a 3.2 mm stainless steel bead (BioSpec Products, Bartlesville, Okla.). Tissues were disrupted for four cycles of 45 seconds in a Mini-Beadbeater (Biospec Products). RNA was extracted in chloroform and the aqueous phase was mixed with an equal volume of 70% ethanol. Extracted RNA was applied to RNeasy 96 plates and purified by the spin method according to the manufacturer's protocol (RNeasy 96 Universal Tissue Protocol, QIAgen, Hilden Germany).
Automated sample amplifications and biotin labelings were carried out using the NuGEN Ovation RNA Amplification system V2 (Cat #3100), Ovation WB reagent (Cat #1300) and Encore Biotin module (Cat #4200) (NuGEN Technologies, Inc, San Carlos, Calif.) according to manufacturer's recommendations using an Arrayplex automated liquid handler (Beckman Coulter, Indianapolis, Ind.). Two micrograms of biotin labeled sscDNA probe were hybridized to Affymetrix GeneChip Affymetrix HT_MG-430_PM plate arrays with modified conditions as described in Allaire et al. Washing and staining of the hybridized arrays were completed as described in the GeneChip Expression analysis technical manual for HT plate arrays using the Genechip® Array Station (Affymetrix, Santa Clara, Calif.) with modifications as described in Allaire et al. The processed GeneChip® plate arrays were scanned using GeneTitan scanner (Affymetrix, Santa Clara, Calif.).
Affymetrix scans were subject to quality control (QC) measures. These tests included a visual inspection of the distribution of raw signal intensities and an assessment of RNA degradation, relative log expression (RLE), and normalized unsealed standard error (NUSE). All sample scans that passed these QC metrics were included in the analysis.
All CEL files were subjected to GC-content-based Robust Multi-array Average (GCRMA) normalization (version 2.20.0) (Irizarry R A, et al. Nucleic Acids Res 2003; 31:e15; Li C, et al. Genome Biol 2001; 2:[…]0032). Expression levels were log (base 2) transformed.
All calculations and analyses were carried out using R (version 2.11.1) and Bioconductor computational tools (Gentleman R. Springer Science+Business Media 2005).

[1] = 100 mg/kg, 7 hr, vs matched vehicle controls
[2] = 100 mg/kg, 12 hr, vs matched vehicle controls

Q: With `COC(=O)/C=C/C(=O)O` [MMF, monomethyl fumarate] as the molecule, how does the “Murine Liver DEGs: Srxn1 (1419942_PM_at)” value (100 mg/kg, 2 hr, vs matched vehicle controls) read?
A: 1.68

Q: And the “Murine Liver DEGs: Akr1b8 (1448894_PM_at)” value [1]?
A: 1.75

Q: What about the “Murine Liver DEGs: Bmp6 (1450759_PM_at)” value [1] of the same molecule?
A: 1.65

Q: And the “Murine Liver DEGs: Cda (1427357_PM_at)” value [1]?
A: 1.92

Q: What about the “Murine Liver DEGs: Clec4n (1419627_PM_s_at)” value [1] of the same molecule?
A: 2.40

Q: And the “Murine Liver DEGs: Erc2 (1434582_PM_at)” value [1]?
A: −1.95

Q: And the “Murine Liver DEGs: Fzd8 (1445815_PM_at)” value [1]?
A: −1.81

Q: What about the “Murine Liver DEGs: G6pdx (1448354_PM_at)” value [1] of the same molecule?
A: 1.61

Q: What about the “Murine Liver DEGs: Irak3 (1435040_PM_at)” value [1] of the same molecule?
A: 1.53

Q: What about the “Murine Liver DEGs: Marco (1449498_PM_at)” value [1] of the same molecule?
A: 2.44

Q: And the “Murine Liver DEGs: Nqo1 (1423627_PM_at)” value [1]?
A: 2.20

Q: What about the “Murine Liver DEGs: Pir (1429001_PM_at)” value [1] of the same molecule?
A: 1.50

Q: And the “Murine Liver DEGs: Srxn1 (1419942_PM_at)” value [1]?
A: 1.52

Q: What about the “Murine Liver DEGs: Ablim1 (1453103_PM_at)” value [2] of the same molecule?
A: −1.51

Q: And the “Murine Liver DEGs: Atp6v0d2 (1444176_PM_at)” value [2]?
A: 1.84

Q: What about the “Murine Liver DEGs: Car3 (1460256_PM_at)” value [2] of the same molecule?
A: −1.57

Q: What about the “Murine Liver DEGs: Ccnf (1443807_PM_x_at)” value [2] of the same molecule?
A: 1.57

Q: What about the “Murine Liver DEGs: Clmn (1439117_PM_at)” value [2] of the same molecule?
A: −1.54

Q: And the “Murine Liver DEGs: Ctla2a (1448471_PM_a_at)” value [2]?
A: 1.63

Q: What about the “Murine Liver DEGs: Dnajc12 (1417441_PM_at)” value [2] of the same molecule?
A: 2.53

Q: And the “Murine Liver DEGs: Fndc3b (1433833_PM_at)” value [2]?
A: 1.66

Q: And the “Murine Liver DEGs: Gadd45b (1450971_PM_at)” value [2]?
A: 1.50

Q: And the “Murine Liver DEGs: Gm3579 (1431214_PM_at)” value [2]?
A: 2.74

Q: What about the “Murine Liver DEGs: Hyou1 (1423290_PM_at)” value [2] of the same molecule?
A: 1.82

Q: And the “Murine Liver DEGs: Lrrc59 (1416235_PM_at)” value [2]?
A: 1.65

Q: And the “Murine Liver DEGs: Nme6 (1448574_PM_at)” value [2]?
A: 1.57

Q: And the “Murine Liver DEGs: Ppapdc1b (1428154_PM_s_at)” value [2]?
A: 1.87

Q: What about the “Murine Liver DEGs: Ppm1k (1441988_PM_at)” value [2] of the same molecule?
A: −1.56

Q: What about the “Murine Liver DEGs: Prtn3 (1419669_PM_at)” value [2] of the same molecule?
A: 4.46

Q: And the “Abcc1 (probe set 1452233_PM_at) differential expression” value (2 hr)?
A: 1.86

Q: What about the “Akr1b8 (probe set 1448894_PM_at) differential expression” value (2 hr) of the same molecule?
A: 2.27

Q: And the “Ampd3 (probe set 1422573_PM_at) differential expression” value (2 hr)?
A: 1.70

Q: What about the “Caprin1 (probe set 1448348_PM_at) differential expression” value (2 hr) of the same molecule?
A: −1.56

Q: And the “Clec4d (probe set 1420804_PM_s_at) differential expression” value (2 hr)?
A: 2.05

Q: What about the “Cmah (probe set 1447019_PM_at) differential expression” value (2 hr) of the same molecule?
A: −1.55

Q: And the “Csnk2a1 (probe set 1419038_PM_a_at) differential expression” value (2 hr)?
A: −1.62

Q: What about the “Figf (probe set 1438953_PM_at) differential expression” value (2 hr) of the same molecule?
A: 2.25

Q: And the “Fxr1 (probe set 1452247_PM_at) differential expression” value (2 hr)?
A: −1.53

Q: What about the “Gclc (probe set 1424296_PM_at) differential expression” value (2 hr) of the same molecule?
A: 1.72

Q: What about the “Hmox1 (probe set 1448239_PM_at) differential expression” value (2 hr) of the same molecule?
A: 2.41

Q: What about the “Meis2 (probe set 1440091_PM_at) differential expression” value (2 hr) of the same molecule?
A: −1.67

Q: What about the “Mkln1 (probe set 1416734_PM_at) differential expression” value (2 hr) of the same molecule?
A: −1.69

Q: What about the “Pgd (probe set 1436771_PM_x_at) differential expression” value (2 hr) of the same molecule?
A: 1.61

Q: What about the “Ppfibp2 (probe set 1417801_PM_a_at) differential expression” value (2 hr) of the same molecule?
A: 2.55

Q: And the “Prpf38b (probe set 1455016_PM_at) differential expression” value (2 hr)?
A: −1.53

Q: What about the “Ptprb (probe set 1453908_PM_at) differential expression” value (2 hr) of the same molecule?
A: −1.76

Q: What about the “Ptprg (probe set 1456070_PM_at) differential expression” value (2 hr) of the same molecule?
A: −1.85

Q: What about the “Srxn1 (probe set 1419942_PM_at) differential expression” value (2 hr) of the same molecule?
A: 1.68

Q: And the “Akr1b8 (probe set 1448894_PM_at) differential expression” value (7 hr)?
A: 1.75

Q: And the “Bmp6 (probe set 1450759_PM_at) differential expression” value (7 hr)?
A: 1.65

Q: And the “Cda (probe set 1427357_PM_at) differential expression” value (7 hr)?
A: 1.92

Q: What about the “Clec4n (probe set 1419627_PM_s_at) differential expression” value (7 hr) of the same molecule?
A: 2.40

Q: And the “Erc2 (probe set 1434582_PM_at) differential expression” value (7 hr)?
A: −1.95

Q: And the “Fzd8 (probe set 1445815_PM_at) differential expression” value (7 hr)?
A: −1.81

Q: What about the “G6pdx (probe set 1448354_PM_at) differential expression” value (7 hr) of the same molecule?
A: 1.61

Q: And the “Irak3 (probe set 1435040_PM_at) differential expression” value (7 hr)?
A: 1.53

Q: What about the “Marco (probe set 1449498_PM_at) differential expression” value (7 hr) of the same molecule?
A: 2.44

Q: And the “Nqo1 (probe set 1423627_PM_at) differential expression” value (7 hr)?
A: 2.20

Q: And the “Pir (probe set 1429001_PM_at) differential expression” value (7 hr)?
A: 1.50

Q: And the “Srxn1 (probe set 1419942_PM_at) differential expression” value (7 hr)?
A: 1.52

Q: And the “Ablim1 (probe set 1453103_PM_at) differential expression” value (12 hr)?
A: −1.51

Q: And the “Atp6v0d2 (probe set 1444176_PM_at) differential expression” value (12 hr)?
A: 1.84

Q: What about the “Car3 (probe set 1460256_PM_at) differential expression” value (12 hr) of the same molecule?
A: −1.57

Q: And the “Ccnf (probe set 1443807_PM_x_at) differential expression” value (12 hr)?
A: 1.57

Q: And the “Clmn (probe set 1439117_PM_at) differential expression” value (12 hr)?
A: −1.54

Q: What about the “Ctla2a (probe set 1448471_PM_a_at) differential expression” value (12 hr) of the same molecule?
A: 1.63

Q: And the “Dnajc12 (probe set 1417441_PM_at) differential expression” value (12 hr)?
A: 2.53

Q: And the “Fndc3b (probe set 1433833_PM_at) differential expression” value (12 hr)?
A: 1.66

Q: What about the “Gadd45b (probe set 1450971_PM_at) differential expression” value (12 hr) of the same molecule?
A: 1.50

Q: And the “Gm3579 (probe set 1431214_PM_at) differential expression” value (12 hr)?
A: 2.74

Q: What about the “Hyou1 (probe set 1423290_PM_at) differential expression” value (12 hr) of the same molecule?
A: 1.82

Q: What about the “Lrrc59 (probe set 1416235_PM_at) differential expression” value (12 hr) of the same molecule?
A: 1.65

Q: And the “Nme6 (probe set 1448574_PM_at) differential expression” value (12 hr)?
A: 1.57

Q: And the “Ppapdc1b (probe set 1428154_PM_s_at) differential expression” value (12 hr)?
A: 1.87

Q: What about the “Ppm1k (probe set 1441988_PM_at) differential expression” value (12 hr) of the same molecule?
A: −1.56

Q: What about the “Prtn3 (probe set 1419669_PM_at) differential expression” value (12 hr) of the same molecule?
A: 4.46
